From ChEMBL document CHEMBL1147332, “Screening of marine invertebrates for the presence of ergosterol-sensitive antifungal compounds” (1993) come the findings set out here.

The source made the active and inactive calls. The calls are words filed in the database; no cut-off is given here.

For assay [1], the system named is Candida albicans. Kind of assay: Antifungal activity against Candida albicans at <= 1 ug after 16 to 19 hrs by disk diffusion assay. It counts as functional, organism-based. In general terms: In agar diffusion tests the substance spreads into inoculated agar from a disc or well.
In assay [2] the test system is Candida albicans. Kind of assay: Antifungal activity against Candida albicans after 16 to 19 hrs by disk diffusion assay. The assay is classed as functional, organism-based.
For assay [3], the system named is Candida albicans. Kind of assay: Antifungal activity against Candida albicans after 16 to 19 hrs by disk diffusion assay in presence of 100 ppm ergosterol. It counts as functional, organism-based.
Assay [4] relates to Candida albicans. Put plainly: Antifungal activity against Candida albicans at 2 ug after 16 to 19 hrs by disk diffusion assay in presence of 20 ppm ergosterol. The assay is classed as functional.
The subject of assay [5] is Candida albicans. Kind of assay: Antifungal activity against Candida albicans at 1 ug after 16 to 19 hrs by disk diffusion assay in presence of increasing concentration of ergosterol. It counts as functional, organism-based.
The subject of assay [6] is Candida albicans. Put plainly: Antifungal activity against Candida albicans at 5 ug after 16 to 19 hrs by disk diffusion assay in presence of 120 ppm ergosterol. The assay is classed as functional.

For `CO[C@H]([C@H](C)/C=C/N(C)C=O)[C@@H](C)C(=O)CC[C@H](C)[C@H](C[C@@H]1OC(=O)C[C@@H](OC(N)=O)C[C@H](C)C[C@H](O)[C@H](C)[C@@H](OC)c2coc(n2)-c2coc(n2)-c2coc(n2)/C=C/C[C@H](OC)[C@H]1C)OC`, the outcome in the assay with Candida albicans [1] was Active. The result with Candida albicans [2] was inactive.
Turning to `Clc1ccc(COC(Cn2ccnc2)c2ccc(Cl)cc2Cl)c(Cl)c1` (stereo not drawn), the outcome with Candida albicans [3] was Active.
Take `C[C@@H]1[C@H](O)[C@@H](C)/C=C/C=C/C=C/C=C/C=C/C=C/C=C/[C@H](O[C@@H]2O[C@H](C)[C@@H](O)[C@H](N)[C@@H]2O)C[C@@H]2O[C@](O)(C[C@@H](O)C[C@@H](O)[C@H](O)CC[C@@H](O)C[C@@H](O)CC(=O)O[C@H]1C)C[C@H](O)[C@H]2C(=O)O` [AMPHOTERICIN B]: the Activity with Candida albicans [4] stood at 50%. In addition, the result in the assay on Candida albicans [5] was Active.
Regarding `C/C1=C\[C@H](C)C[C@H](C)OC(=O)C[C@H](c2ccc(O)cc2)NC(=O)[C@@H](Cc2c(Br)[nH]c3ccccc23)N(C)C(=O)[C@H](C)NC(=O)[C@@H](C)C1` [JASPAMIDE], the Activity with Candida albicans [6] is 50%. In addition, the outcome in the assay with Candida albicans [1] was Active. Further, in the assay with Candida albicans [2], the outcome was inactive.
